Test results from ChEMBL document CHEMBL1139487, “Discovery of corticotropin releasing factor 2 receptor selective sauvagine analogues for treatment of skeletal muscle atrophy” (J Med Chem, 2005).
Square brackets hold non-standard residues; d marks the D form. Peptide text beside a SMILES is read from it. 1Nal = N[C@@H](Cc1cccc2ccccc12)C(=O)O; pGlu = O=C1CC[C@@H](C(=O)O)N1

Assays:
[1] = target: T1, Corticotropin-releasing factor receptor 1 (Mus musculus, UniProt P35347); assay: In vitro effective concentration for mouse corticotropin releasing factor 1 receptor
T1 sequence (P35347 whole entry): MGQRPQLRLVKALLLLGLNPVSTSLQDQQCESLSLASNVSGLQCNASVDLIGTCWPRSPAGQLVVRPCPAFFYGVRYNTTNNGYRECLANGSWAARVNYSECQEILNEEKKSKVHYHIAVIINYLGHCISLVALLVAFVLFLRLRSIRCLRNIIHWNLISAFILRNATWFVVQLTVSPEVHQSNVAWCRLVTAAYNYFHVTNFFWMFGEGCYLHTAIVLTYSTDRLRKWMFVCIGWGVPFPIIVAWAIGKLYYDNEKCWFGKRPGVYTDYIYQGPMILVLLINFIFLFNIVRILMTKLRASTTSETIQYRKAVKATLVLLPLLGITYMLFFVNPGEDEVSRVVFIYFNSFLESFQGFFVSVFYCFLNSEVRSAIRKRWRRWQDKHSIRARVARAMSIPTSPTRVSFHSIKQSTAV

[2] = target: Corticotropin-releasing factor receptor 2 (Mus musculus, UniProt Q60748); assay: In vitro effective concentration for mouse corticotropin releasing factor 2 receptor
[3] = target: T2, Corticotropin-releasing factor receptor 1 (Mus musculus) (UniProt P35347); assay: In vitro agonistic activity against mouse corticotropin releasing factor 1 receptor; format: functional
T2 sequence (whole entry): T1 sequence (P35347 whole entry)

[4] = target: Corticotropin-releasing factor receptor 2 (Mus musculus) (UniProt Q60748); assay: In vitro agonistic activity against mouse corticotropin releasing factor 2 receptor; format: functional
Mus musculus = species: Mus musculus; assay: Selectivity ratio of EC50s for mouse corticotropin releasing factor receptors 1 and 2

Sequence of Corticotropin-releasing factor receptor 2 (Mus musculus) (Q60748 whole entry): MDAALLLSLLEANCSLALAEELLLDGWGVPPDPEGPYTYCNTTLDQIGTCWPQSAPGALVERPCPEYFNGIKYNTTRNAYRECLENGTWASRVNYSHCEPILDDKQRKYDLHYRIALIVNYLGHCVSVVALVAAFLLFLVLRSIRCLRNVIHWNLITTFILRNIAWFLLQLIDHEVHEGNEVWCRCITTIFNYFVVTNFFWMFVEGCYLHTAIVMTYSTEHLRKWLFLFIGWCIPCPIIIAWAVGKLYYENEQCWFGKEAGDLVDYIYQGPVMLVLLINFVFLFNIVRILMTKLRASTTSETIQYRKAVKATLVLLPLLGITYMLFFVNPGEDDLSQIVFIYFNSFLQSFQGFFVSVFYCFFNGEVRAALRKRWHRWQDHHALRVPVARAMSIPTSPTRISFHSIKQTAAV
Sequence of Corticotropin-releasing factor receptor 2 (Q60748 whole entry): as above

EC50 [1] [nM]	EC50 [2] [nM]	Emax [3] [%]	Emax [4] [%]	Selectivity (Mus musculus)	Compound
64.9	5.6	81	88	13	CC[C@H](C)[C@H](NC(=O)[C@@H](NC(=O)[C@H](CC(=O)O)NC(=O)[C@H](CC(C)C)NC(=O)[C@H](CC(C)C)NC(=O)[C@H](CC(C)C)NC(=O)[C@H](CCCN=C(N)N)NC(=O)[C@H](CC(N)=O)NC(=O)[C@H](CC(N)=O)NC(=O)[C@H](C)NC(=O)[C@H](C)NC(=O)[C@H](CCC(N)=O)NC(=O)[C@H](CCC(N)=O)NC(=O)[C@H](CCCCN)NC(=O)[C@H](CCC(=O)O)NC(=O)[C@H](CCCCN)NC(=O)[C@H](CCC(=O)O)NC(=O)[C@H](CCC(N)=O)NC(=O)[C@H](CCCCN)NC(=O)[C@H](CCC(=O)O)NC(=O)[C@@H](NC(=O)[C@H](CCC(=O)O)NC(=O)[C@@H](NC(=O)[C@H](CCSC)NC(=O)[C@H](CCCCN)NC(=O)[C@H](CCCN=C(N)N)NC(=O)[C@H](CC(C)C)NC(=O)[C@H](CC(C)C)NC(=O)[C@H](Cc1c[nH]cn1)NC(=O)[C@H](Cc1ccc(O)cc1)NC(=O)[C@@H]1CCCN1C(=O)[C@H](CC(C)C)NC(=O)[C@H](CC(=O)O)NC(=O)[C@@H](NC(=O)[C@H](CO)NC(=O)[C@@H](NC(=O)[C@@H]1CCCN1C(=O)[C@@H]1CCCN1C(=O)CNC(=O)[C@@H]1CCC(=O)N1)[C@@H](C)CC)[C@@H](C)CC)[C@@H](C)CC)[C@@H](C)CC)[C@@H](C)O)C(=O)O
		100	100	26	CC[C@H](C)[C@H](NC(=O)[C@@H](NC(=O)[C@H](CC(=O)O)NC(=O)[C@H](CC(C)C)NC(=O)[C@H](CC(C)C)NC(=O)[C@H](CC(C)C)NC(=O)[C@H](CCCN=C(N)N)NC(=O)[C@H](CC(N)=O)NC(=O)[C@H](CC(N)=O)NC(=O)[C@H](C)NC(=O)[C@H](C)NC(=O)[C@H](CCC(N)=O)NC(=O)[C@H](CCC(N)=O)NC(=O)[C@H](CCCCN)NC(=O)[C@H](CCC(=O)O)NC(=O)[C@H](CCCCN)NC(=O)[C@H](CCC(=O)O)NC(=O)[C@H](CCC(N)=O)NC(=O)[C@H](CCCCN)NC(=O)[C@H](CCC(=O)O)NC(=O)[C@@H](NC(=O)[C@H](CCC(=O)O)NC(=O)[C@@H](NC(=O)[C@H](CCSC)NC(=O)[C@H](CCCCN)NC(=O)[C@H](CCCN=C(N)N)NC(=O)[C@H](CC(C)C)NC(=O)[C@H](CC(C)C)NC(=O)[C@H](Cc1cccc2ccccc12)NC(=O)[C@H](CCC(N)=O)NC(=O)[C@@H]1CCCN1C(=O)[C@H](CC(C)C)NC(=O)[C@H](CC(=O)O)NC(=O)[C@@H](NC(=O)[C@H](CO)NC(=O)[C@@H](NC(=O)[C@@H]1CCCN1C(=O)[C@@H]1CCCN1C(=O)CNC(=O)[C@@H]1CCC(=O)N1)[C@@H](C)CC)[C@@H](C)CC)[C@@H](C)CC)[C@@H](C)CC)[C@@H](C)O)C(=O)O ([pGlu]GPPISIDLPQ[1Nal]LLRKMIEIEKQEKEKQQAANNRLLLDTI-OH)
		99	82	14	CC[C@H](C)[C@H](NC(=O)[C@@H](NC(=O)[C@H](CC(=O)O)NC(=O)[C@H](CC(C)C)NC(=O)[C@H](CC(C)C)NC(=O)[C@H](CC(C)C)NC(=O)[C@H](CCCN=C(N)N)NC(=O)[C@H](CC(N)=O)NC(=O)[C@H](CC(N)=O)NC(=O)[C@H](C)NC(=O)[C@H](C)NC(=O)[C@H](CCC(N)=O)NC(=O)[C@H](CCC(N)=O)NC(=O)[C@H](CCCCN)NC(=O)[C@H](CCC(=O)O)NC(=O)[C@H](CCCCN)NC(=O)[C@H](CCC(=O)O)NC(=O)[C@H](CCC(N)=O)NC(=O)[C@H](CCCCN)NC(=O)[C@H](CCC(=O)O)NC(=O)[C@@H](NC(=O)[C@H](CCC(=O)O)NC(=O)[C@@H](NC(=O)[C@H](CCSC)NC(=O)[C@H](CCCCN)NC(=O)[C@H](CCCN=C(N)N)NC(=O)[C@H](CC(C)C)NC(=O)[C@H](CC(C)C)NC(=O)CNC(=O)[C@H](CC(C)C)NC(=O)[C@@H]1CCCN1C(=O)[C@H](CC(C)C)NC(=O)[C@H](CC(=O)O)NC(=O)[C@@H](NC(=O)[C@H](CO)NC(=O)[C@@H](NC(=O)[C@@H]1CCCN1C(=O)[C@@H]1CCCN1C(=O)CNC(=O)[C@@H]1CCC(=O)N1)[C@@H](C)CC)[C@@H](C)CC)[C@@H](C)CC)[C@@H](C)CC)[C@@H](C)O)C(=O)O ([pGlu]GPPISIDLPLGLLRKMIEIEKQEKEKQQAANNRLLLDTI-OH)
		81	91	14	CC[C@H](C)[C@H](NC(=O)[C@@H](NC(=O)[C@H](CC(=O)O)NC(=O)[C@H](CC(C)C)NC(=O)[C@H](CC(C)C)NC(=O)[C@H](CC(C)C)NC(=O)[C@H](CCCN=C(N)N)NC(=O)[C@H](CC(N)=O)NC(=O)[C@H](CC(N)=O)NC(=O)[C@H](C)NC(=O)[C@H](C)NC(=O)[C@H](CCC(N)=O)NC(=O)[C@H](CCC(N)=O)NC(=O)[C@H](CCCCN)NC(=O)[C@H](CCC(=O)O)NC(=O)[C@H](CCCCN)NC(=O)[C@H](CCC(=O)O)NC(=O)[C@H](CCC(N)=O)NC(=O)[C@H](CCCCN)NC(=O)[C@H](CCC(=O)O)NC(=O)[C@@H](NC(=O)[C@H](CCC(=O)O)NC(=O)[C@@H](NC(=O)[C@H](CCSC)NC(=O)[C@H](CCCCN)NC(=O)[C@H](CCCN=C(N)N)NC(=O)[C@H](CC(C)C)NC(=O)[C@H](CC(C)C)NC(=O)[C@@H](NC(=O)[C@H](Cc1ccccc1)NC(=O)[C@@H]1CCCN1C(=O)[C@H](CC(C)C)NC(=O)[C@H](CC(=O)O)NC(=O)[C@@H](NC(=O)[C@H](CO)NC(=O)[C@@H](NC(=O)[C@@H]1CCCN1C(=O)[C@@H]1CCCN1C(=O)CNC(=O)[C@@H]1CCC(=O)N1)[C@@H](C)CC)[C@@H](C)CC)C(C)C)[C@@H](C)CC)[C@@H](C)CC)[C@@H](C)O)C(=O)O
		95	94	48	CC[C@H](C)[C@H](NC(=O)[C@@H](NC(=O)[C@H](CC(=O)O)NC(=O)[C@H](CC(C)C)NC(=O)[C@H](CC(C)C)NC(=O)[C@H](CC(C)C)NC(=O)[C@H](CCCN=C(N)N)NC(=O)[C@H](CC(N)=O)NC(=O)[C@H](CC(N)=O)NC(=O)[C@H](C)NC(=O)[C@H](C)NC(=O)[C@H](CCC(N)=O)NC(=O)[C@H](CCC(N)=O)NC(=O)[C@H](CCCCN)NC(=O)[C@H](CCC(=O)O)NC(=O)[C@H](CCCCN)NC(=O)[C@H](CCC(=O)O)NC(=O)[C@H](CCC(N)=O)NC(=O)[C@H](CCCCN)NC(=O)[C@H](CCC(=O)O)NC(=O)[C@@H](NC(=O)[C@H](CCC(=O)O)NC(=O)[C@@H](NC(=O)[C@H](CCSC)NC(=O)[C@H](CCCCN)NC(=O)[C@H](CCCN=C(N)N)NC(=O)[C@H](CC(C)C)NC(=O)[C@H](CC(C)C)NC(=O)[C@@H](NC(=O)[C@H](CC(C)C)NC(=O)[C@@H]1CCCN1C(=O)[C@H](CC(C)C)NC(=O)[C@H](CC(=O)O)NC(=O)[C@@H](NC(=O)[C@H](CO)NC(=O)[C@@H](NC(=O)[C@@H]1CCCN1C(=O)[C@@H]1CCCN1C(=O)CNC(=O)[C@@H]1CCC(=O)N1)[C@@H](C)CC)[C@@H](C)CC)C(C)C)[C@@H](C)CC)[C@@H](C)CC)[C@@H](C)O)C(=O)O
		50	100	33	CC[C@H](C)[C@H](NC(=O)[C@@H](NC(=O)[C@H](CC(=O)O)NC(=O)[C@H](CC(C)C)NC(=O)[C@H](CC(C)C)NC(=O)[C@H](CC(C)C)NC(=O)[C@H](CCCN=C(N)N)NC(=O)[C@H](CC(N)=O)NC(=O)[C@H](CC(N)=O)NC(=O)[C@H](C)NC(=O)[C@H](C)NC(=O)[C@H](CCC(N)=O)NC(=O)[C@H](CCC(N)=O)NC(=O)[C@H](CCCCN)NC(=O)[C@H](CCC(=O)O)NC(=O)[C@H](CCCCN)NC(=O)[C@H](CCC(=O)O)NC(=O)[C@H](CCC(N)=O)NC(=O)[C@H](CCCCN)NC(=O)[C@H](CCC(=O)O)NC(=O)[C@@H](NC(=O)[C@H](CCC(=O)O)NC(=O)[C@@H](NC(=O)[C@H](CCSC)NC(=O)[C@H](CCCCN)NC(=O)[C@H](CCCN=C(N)N)NC(=O)[C@H](CC(C)C)NC(=O)[C@H](CC(C)C)NC(=O)[C@H](CCC(N)=O)NC(=O)[C@H](CCC(N)=O)NC(=O)[C@@H]1CCCN1C(=O)[C@H](CC(C)C)NC(=O)[C@H](CC(=O)O)NC(=O)[C@@H](NC(=O)[C@H](CO)NC(=O)[C@@H](NC(=O)[C@@H]1CCCN1C(=O)[C@@H]1CCCN1C(=O)CNC(=O)[C@@H]1CCC(=O)N1)[C@@H](C)CC)[C@@H](C)CC)[C@@H](C)CC)[C@@H](C)CC)[C@@H](C)O)C(=O)O
		79	73	16	CC[C@H](C)[C@H](NC(=O)[C@@H](NC(=O)[C@H](CC(=O)O)NC(=O)[C@H](CC(C)C)NC(=O)[C@H](CC(C)C)NC(=O)[C@H](CC(C)C)NC(=O)[C@H](CCCN=C(N)N)NC(=O)[C@H](CC(N)=O)NC(=O)[C@H](CC(N)=O)NC(=O)[C@H](C)NC(=O)[C@H](C)NC(=O)[C@H](CCC(N)=O)NC(=O)[C@H](CCC(N)=O)NC(=O)[C@H](CCCCN)NC(=O)[C@H](CCC(=O)O)NC(=O)[C@H](CCCCN)NC(=O)[C@H](CCC(=O)O)NC(=O)[C@H](CCC(N)=O)NC(=O)[C@H](CCCCN)NC(=O)[C@H](CCC(=O)O)NC(=O)[C@@H](NC(=O)[C@H](CCC(=O)O)NC(=O)[C@@H](NC(=O)[C@H](CCSC)NC(=O)[C@H](CCCCN)NC(=O)[C@H](CCCN=C(N)N)NC(=O)[C@H](CC(C)C)NC(=O)[C@H](CC(C)C)NC(=O)[C@H](Cc1ccc(O)cc1)NC(=O)[C@H](CC(C)C)NC(=O)[C@@H]1CCCN1C(=O)[C@H](CC(C)C)NC(=O)[C@H](CC(=O)O)NC(=O)[C@@H](NC(=O)[C@H](CO)NC(=O)[C@@H](NC(=O)[C@@H]1CCCN1C(=O)[C@@H]1CCCN1C(=O)CNC(=O)[C@@H]1CCC(=O)N1)[C@@H](C)CC)[C@@H](C)CC)[C@@H](C)CC)[C@@H](C)CC)[C@@H](C)O)C(=O)O ([pGlu]GPPISIDLPLYLLRKMIEIEKQEKEKQQAANNRLLLDTI-OH)
